{"source": "ChEMBL document CHEMBL5053553", "about": "“Structure-activity relationship around PI-2620 highlights the importance of the nitrogen atom position in the tricyclic core” (Bioorg Med Chem, 2021)", "key": {"[1]": {"target": "Microtubule-associated protein tau (Homo sapiens, UniProt P10636)", "sequence (P10636 whole entry)": "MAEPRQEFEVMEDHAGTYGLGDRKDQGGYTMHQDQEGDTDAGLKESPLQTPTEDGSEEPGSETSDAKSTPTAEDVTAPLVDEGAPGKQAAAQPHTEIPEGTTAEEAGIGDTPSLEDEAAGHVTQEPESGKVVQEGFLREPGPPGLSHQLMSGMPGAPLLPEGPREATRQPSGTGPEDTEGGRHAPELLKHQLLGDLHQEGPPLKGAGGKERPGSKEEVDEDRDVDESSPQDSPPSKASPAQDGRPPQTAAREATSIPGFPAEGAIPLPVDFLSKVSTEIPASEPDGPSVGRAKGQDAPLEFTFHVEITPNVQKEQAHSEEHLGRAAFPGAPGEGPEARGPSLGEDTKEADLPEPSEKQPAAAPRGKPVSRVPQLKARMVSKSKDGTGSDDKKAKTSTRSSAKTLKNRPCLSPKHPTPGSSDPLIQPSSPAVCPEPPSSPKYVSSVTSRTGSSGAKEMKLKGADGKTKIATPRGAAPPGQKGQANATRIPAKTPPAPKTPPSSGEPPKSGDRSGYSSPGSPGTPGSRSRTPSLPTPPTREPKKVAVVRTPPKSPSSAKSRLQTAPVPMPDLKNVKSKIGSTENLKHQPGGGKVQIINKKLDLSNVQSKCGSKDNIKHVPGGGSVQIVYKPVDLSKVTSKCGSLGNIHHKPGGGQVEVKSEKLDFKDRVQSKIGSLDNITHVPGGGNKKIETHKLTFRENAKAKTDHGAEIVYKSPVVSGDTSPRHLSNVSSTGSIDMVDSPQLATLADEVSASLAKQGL", "test": "Displacement of [3H]PI-2620 from Tau in human brain homogenate incubated for 60 mins by radioligand binding assay", "type": "tissue-based"}, "[2]": {"target": "T1, Amine oxidase [flavin-containing] A (Mus musculus, UniProt Q64133)", "T1 sequence (Q64133 whole entry)": "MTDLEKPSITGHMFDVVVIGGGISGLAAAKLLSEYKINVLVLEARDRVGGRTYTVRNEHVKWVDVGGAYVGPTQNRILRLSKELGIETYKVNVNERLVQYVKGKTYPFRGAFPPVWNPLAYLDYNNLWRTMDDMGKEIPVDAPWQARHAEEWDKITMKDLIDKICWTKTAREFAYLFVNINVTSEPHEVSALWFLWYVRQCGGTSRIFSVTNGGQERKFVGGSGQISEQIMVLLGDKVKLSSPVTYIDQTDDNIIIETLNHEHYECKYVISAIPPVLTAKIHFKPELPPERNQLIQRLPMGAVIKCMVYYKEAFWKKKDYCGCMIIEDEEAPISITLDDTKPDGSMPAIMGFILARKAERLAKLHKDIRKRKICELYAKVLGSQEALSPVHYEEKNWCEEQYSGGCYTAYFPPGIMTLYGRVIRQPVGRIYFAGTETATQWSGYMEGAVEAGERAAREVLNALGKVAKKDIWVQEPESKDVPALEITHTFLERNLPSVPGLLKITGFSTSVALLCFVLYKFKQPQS", "test": "Displacement of [18F]-FEH from MAO-A in mouse brain homogenate incubated for 60 mins by imaging analysis", "type": "tissue-based"}}, "data": [{"molecule": "Fc1cc(-c2cc3[nH]c4ccncc4c3cn2)ccn1", "values": [{"measurement": "IC50", "setting": "[1]", "value": 82, "unit": "nM"}, {"measurement": "IC50", "setting": "[2]", "value": "> 1000", "unit": "nM"}]}, {"molecule": "Fc1cc(-c2ccc3c(n2)[nH]c2cccnc23)ccn1", "values": [{"measurement": "IC50", "setting": "[1]", "value": 260, "unit": "nM"}]}, {"molecule": "Fc1cc(-c2ccc3c(n2)[nH]c2ncccc23)ccn1", "values": [{"measurement": "IC50", "setting": "[1]", "value": 310, "unit": "nM"}]}, {"molecule": "Fc1ncccc1-c1ccc2c(n1)[nH]c1ccncc12", "values": [{"measurement": "IC50", "setting": "[1]", "value": 15.5, "unit": "nM"}, {"measurement": "IC50", "setting": "[2]", "value": "> 1000", "unit": "nM"}]}, {"molecule": "Fc1ncccc1-c1cnc2c(c1)[nH]c1ccncc12", "values": [{"measurement": "IC50", "setting": "[1]", "value": 344, "unit": "nM"}, {"measurement": "IC50", "setting": "[2]", "value": "> 1000", "unit": "nM"}]}, {"molecule": "Fc1ncccc1-c1ccc2c(c1)[nH]c1ccncc12", "values": [{"measurement": "IC50", "setting": "[1]", "value": 3.5, "unit": "nM"}, {"measurement": "IC50", "setting": "[2]", "value": 7.8, "unit": "nM"}]}, {"molecule": "Fc1ncccc1-c1ccc2c(n1)[nH]c1cnccc12", "values": [{"measurement": "IC50", "setting": "[1]", "value": 70, "unit": "nM"}]}, {"molecule": "Fc1cc(-c2ccc3c(c2)[nH]c2ccncc23)ccn1", "values": [{"measurement": "IC50", "setting": "[1]", "value": 3.1, "unit": "nM"}]}, {"molecule": "Fc1cc(-c2ccc3c(n2)[nH]c2cnccc23)ccn1", "values": [{"measurement": "IC50", "setting": "[1]", "value": 36, "unit": "nM"}]}, {"molecule": "Fc1cc(-c2ccc3c(n2)[nH]c2ccncc23)ccn1", "values": [{"measurement": "IC50", "setting": "[1]", "value": 4.9, "unit": "nM"}, {"measurement": "IC50", "setting": "[2]", "value": "> 1000", "unit": "nM"}]}, {"molecule": "Fc1cc(-c2cnc3c(c2)[nH]c2ccncc23)ccn1", "values": [{"measurement": "IC50", "setting": "[1]", "value": 116, "unit": "nM"}, {"measurement": "IC50", "setting": "[2]", "value": "> 1000", "unit": "nM"}]}, {"molecule": "Fc1cc(-c2nc3[nH]c4ccncc4c3s2)ccn1", "values": [{"measurement": "IC50", "setting": "[1]", "value": 18, "unit": "nM"}, {"measurement": "IC50", "setting": "[2]", "value": "> 1000", "unit": "nM"}]}, {"molecule": "Fc1ncccc1-c1ccc2c(n1)[nH]c1ncccc12", "values": [{"measurement": "IC50", "setting": "[1]", "value": "> 1000", "unit": "nM"}]}, {"molecule": "Fc1ncccc1-c1cc2[nH]c3ccncc3c2cn1", "values": [{"measurement": "IC50", "setting": "[1]", "value": 732, "unit": "nM"}, {"measurement": "IC50", "setting": "[2]", "value": "> 1000", "unit": "nM"}]}, {"molecule": "Fc1ncccc1-c1ccc2c(n1)[nH]c1cccnc12", "values": [{"measurement": "IC50", "setting": "[1]", "value": 559, "unit": "nM"}]}]}
